Results on eleven compounds are retold here after publication PMC6100724, “Proteome‐wide analysis of phospho‐regulated PDZ domain interactions” (Molecular Systems Biology, 2018).

Square brackets hold non-standard residues; d marks the D form. Peptide text beside a SMILES is read from it. * marks the point of attachment. FITC = O=C1OC2(c3ccc(O)cc3Oc3cc(O)ccc32)c2ccc(NC(=S)*)cc21; pS = N[C@@H](COP(=O)(O)O)C(=O)O

In assay [1] the target is T1, DLG1 PDZ2 (Homo sapiens, UniProt Q12959).
T1 construct: human DLG1 PDZ2 aa 311–407 in a modified pRSET vector 40; made in house; host or cells: E. coli BL21 Gold (DE3)
Briefly: Phosphomimetic ProP-PD selection with NGS. The assay is classed as binding. The following applies: mean of selections 1-3, bait DLG1 PDZ2. Put shortly:
(§1)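 Phage display of a phosphomimetic C-terminal peptide library, four rounds against immobilised GST-tagged PDZ domains with GST pre-selection, binding 2 h at 8 °C. Phospho-library selections were run in HBS, pH 7.4. Round-three pools were analysed by NGS (Phred ≥30, ≤2 mismatches); binding was scored as the fraction of reads, not the absolute count.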

Assay [2] addresses T2, Scribble PDZ1 (Homo sapiens, UniProt Q14160).
T2 construct: human Scribble PDZ1 aa 719–829 in; made in house; host or cells: E. coli BL21 Gold (DE3)
As to the kind of experiment: Phosphomimetic ProP-PD selection with NGS. The assay is classed as binding. As to conditions: bait Scribble PDZ1; mean of selections 1-3. The method in brief:
as §1

Assay [3] has as its system DLG1 PDZ1. As to the kind of experiment: Phosphomimetic ProP-PD selection with NGS. The assay is classed as binding, human. As to conditions: mean of selections 1-3, bait DLG1 PDZ1; for Mean fraction #NGS counts mimetic peptide / total count selection: phosphomimetic peptide; for Mean fraction #NGS counts wt peptide / total counts selection: wild type peptide. The method in brief: as §1

Assay [4] concerns DLG1 PDZ3. Briefly: Phosphomimetic ProP-PD selection with NGS. The assay is classed as binding, human. The following applies: mean of selections 1-3; bait DLG1 PDZ3. Put shortly: as §1
The test system of assay [5] is Scribble PDZ3. As to the kind of experiment: Phosphomimetic ProP-PD selection with NGS. The assay is classed as binding, human. As to conditions: mean over selections 1-3; bait Scribble PDZ3. Put shortly:
as §1

The target in assay [6] is T1, DLG1 PDZ2. As to the kind of experiment: MST affinity measurement, FITC-labeled peptides vs DLG1 PDZ2. The assay is classed as binding. As to conditions: FITC-labeled peptide fixed at 25–50 nM, titrated with DLG1 PDZ2 (aa 311–407), 50 mM Tris–HCl pH 7.4, 0.1% Tween‐20, thermophoresis and T Jump signal, mean ± SD, n = 3, read-out: KD values, DLG1 PDZ2 (table row head: DLG PDZ1), MST. The source says:
(§2) Glutathione transferase (GST)‐tagged PDZ domains and GST for phage display selections were expressed and purified as described previously (Tonikian et al, 2008; Ivarsson et al, 2014). Protein expression for MST, ITC, and NMR experiments was as follows: Plasmids encoding His‐tagged proteins (human Scribble PDZ1 aa 719–829 in pETM‐11, human DLG1 PDZ2 aa 311–407 in a modified pRSET vector 40, or human Shank1 PDZ aa 652–761 in pETM‐33) were transformed into E. coli BL21 Gold (DE3; Agilent), and the proteins were expressed in 2YT media supplemented with appropriate antibiotic (70 or 100 μg/ml carbenicillin). Protein expression was induced upon reaching an OD600 of 0.8 by adding 1 mM isopropyl β‐D‐1‐thiogalactopyranoside (IPTG) final concentration and allowed for 4 h at 30°C.
Scribble PDZ1 for NMR experiments was expressed in M9 salt enriched with 13C D‐glucose and 15N ammonium chloride. Bacteria were harvested by centrifugation at 10,000 × g for 20 min at 4°C. The pellets were resuspended in PBS supplemented with 5 mM CaCl2, 10 μg/ml DNaseI, and 1 mg/ml lysozyme and protease inhibitor (cOmplete Mini EDTA‐free; Sigma‐Aldrich) and incubated for 1 h at 4°C. The lysates were subjected to sonication in 1‐ to 3‐s pulses for 20 pulses. The lysate was cleared by centrifugation at 20,000 × g for 1 h. […]

Assay [7] concerns Scribble PDZ2. As to the kind of experiment: Phosphomimetic ProP-PD selection with NGS. The assay is classed as binding, human. As to conditions: bait Scribble PDZ2; mean of selections 1 and 2 (selection 3 empty). The method in brief: as §1
Assay [8] concerns the target T2, Scribble PDZ1. As to the kind of experiment: ITC titration, wild-type Scribble PDZ1. The assay is classed as binding. As to conditions: unlabeled 9-mer peptides, 20 mM HEPES pH 7.4, 25°C, 50–100 μM protein in cell, 0.64–3 mM peptide in syringe, single-site fit, mean ± SD.
Excerpt: as §2
Scribble PDZ1 for NMR experiments was expressed in M9 salt enriched with 13C D‐glucose and 15N ammonium chloride. Bacteria were harvested by centrifugation at 10,000 × g for 20 min at 4°C. The pellets were resuspended in PBS supplemented with 5 mM CaCl2, 10 μg/ml DNaseI, and 1 mg/ml lysozyme and protease inhibitor (cOmplete Mini EDTA‐free; Sigma‐Aldrich) and incubated for 1 h at 4°C. The lysates were subjected to sonication in 1‐ to 3‐s pulses for 20 pulses. […]
Peptides and proteins were dialyzed in the same beaker in 20 mM HEPES, pH 7.4. […] The results were analyzed using Origin 7 (OriginLab Corporation). […]
In general terms: ITC needs no label: the signal is the heat of the interaction.

T1 sequence (Q12959 311-407): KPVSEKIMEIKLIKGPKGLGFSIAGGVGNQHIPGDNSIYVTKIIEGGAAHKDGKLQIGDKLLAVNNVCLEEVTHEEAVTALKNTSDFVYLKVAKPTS
T2 sequence (Q14160 719-829): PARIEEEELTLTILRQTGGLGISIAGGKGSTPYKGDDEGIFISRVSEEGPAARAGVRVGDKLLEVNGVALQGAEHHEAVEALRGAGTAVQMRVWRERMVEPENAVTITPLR

LPKIKEETV: the “Mean fraction #NGS counts mimetic peptide / total count selection” value in assay [1] came to 0; in assay [2], 0; in assay [3] it was 3.0718e-6; in assay [4] it was 0; in assay [5], 0.
In the case of `CC[C@H](C)[C@H](NC(=O)[C@H](Cc1ccccc1)NC(=O)[C@H](CO)NC(=O)[C@H](CCCNC(=N)N)NC(=O)[C@H](CCCCN)NC(=S)Nc1ccc2c(c1)C(=O)OC21c2ccc(O)cc2Oc2cc(O)ccc21)C(=O)N[C@@H](CCC(=O)O)C(=O)N[C@@H](CO)C(=O)N[C@@H](CC(N)=O)C(=O)N[C@H](C(=O)O)C(C)C` [TANC1] ({FITC}-KRSFIESNV-OH), the Kd (as a rule, the free concentration of one partner at which half of the binding sites on the other are occupied at equilibrium, for simple one-to-one binding) in assay [6] was 2.7 ± 0.1 µM.
On the same count and under the same terms, the value for `CC[C@H](C)[C@H](NC(=O)[C@H](Cc1ccccc1)NC(=O)[C@H](COP(=O)(O)O)NC(=O)[C@H](CCCNC(=N)N)NC(=O)[C@H](CCCCN)NC(=S)Nc1ccc2c(c1)C(=O)OC21c2ccc(O)cc2Oc2cc(O)ccc21)C(=O)N[C@@H](CCC(=O)O)C(=O)N[C@@H](CO)C(=O)N[C@@H](CC(N)=O)C(=O)N[C@H](C(=O)O)C(C)C` [pTANC1, FITC‐KRpSFIESNV] ({FITC}-KR[pS]FIESNV-OH) was 6.1 ± 0.7 µM.
Consider TIKLKTSFF, for which the “Mean fraction #NGS counts wt peptide / total counts selection” value in assay [1] (wild type peptide) amounted to 4.36e-5; in assay [3], 0; in assay [4], 3.092e-5; in assay [5], 4.802e-5.
Regarding VWLRKETRV, the “Mean fraction #NGS counts wt peptide / total counts selection” value was determined as 0.5055 in assay [1]; 0.0001002 in assay [2]; 0.4163 in assay [3]; 0.8949 in assay [4]; 0.008925 in assay [7]; 0.009414 in assay [5].
As for HSIKQSTAV, the “Mean fraction #NGS counts mimetic peptide / total count selection” value in assay [1] is 0. In addition, the “Mean fraction #NGS counts wt peptide / total counts selection” value is recorded as 5.408e-5 in assay [1] (wild type peptide); 4.38e-5 in assay [2]; 0.0004538 in assay [3]; 0 in assay [4]; 0.0003798 in assay [7]; 5.205e-5 in assay [5].
For the compound VWLRKEERV, the “Mean fraction #NGS counts mimetic peptide / total count selection” value in assay [1] is 3.584e-5; in assay [2], 0; in assay [3], 0; in assay [4] it was 9.275e-5; in assay [7] it was 0; in assay [5], 0.
Take LPKIKETTV: the “Mean fraction #NGS counts wt peptide / total counts selection” value in assay [1] was 0.04339; in assay [2], 0.0005451; in assay [3], 0.004479; in assay [4], 0.008422; in assay [5], 0.004275.
With GGKRKEELV, the “Mean fraction #NGS counts mimetic peptide / total count selection” value was 0.0001104 in assay [1], 3.0718e-6 in assay [3], 0 in assay [4] and 0 in assay [5].
Take “ARVSKEpTPL [pMAPK12, p‐2 phosphorylated MAPK12 peptide]”: the “KD values, Scribble PDZ1, ITC” value is on record as “no binding” in assay [8] (n = 3) and “no interaction was observed” in assay [8] (n = 3, listed as phosphorylated MAPK12).
Turning to HSIKQETAV, the “Mean fraction #NGS counts mimetic peptide / total count selection” value in assay [1] was 0.01768; in assay [2], 6.299e-5; in assay [3], 0.0009534; in assay [4] it was 0.0006363; in assay [7] it was 0.001519; in assay [5], 0.0001468.
